Where “and” joins values, the source holds several entries; their conditions need not be identical. Equal values may be shown once. Entries after “also recorded” stand apart in the source; their conditions may differ.
What was measured:
Reticulitermes spp. [1] = assay: Diet consumption by individual termites, radioisotope quantification by scintillation counting; type: in vivo; settings: for feeding preference of individual termites: choice test 14C-hexaflumuron and 3H-inulin
Protocol: Diet Consumption by Individual Termites. After mortality was recorded for a particular treatment/day, 20 surviving termites were randomly selected from each radioactive treatment arena for isotope analysis. Random selection was not limited to dyed termites. Non-dyed termites were also selected. The termites were thoroughly rinsed with distilled water three times to remove any radioactivity from the outside of the body. They were next placed on paper towels to remove excess water. Each rinsed, dried termite was placed into a separate microcentrifuge tube (1.5 ml; Fisher Brand), and the body was homogenized in 200 μl of distilled water. The homogenate was transferred into a glass scintillation vial (20 ml; Kimble Glass, Vineland, N.J.). Microcentrifuge tubes were rinsed three times with 200 μl of distilled water per rinse. Each rinse was added to the homogenate in the scintillation vial. An aliquot of scintillation cocktail (8 ml; Scintiverse® BD; Fisher Scientific, Fair Lawn, N.J.) was then added to each vial.
The amount of radioactivity contained within each sample was quantified by using a scintillation counter (Beckman Coulter, Inc.™ LS 6500, Fullerton, Calif.). The individual termite samples contained very low dpm counts. Therefore, sample vials containing only a single isotope (from no-choice tests) were counted for 10 minutes. However, sample vials that potentially could contain dual isotopes (from choice-tests) were counted for 20 minutes to improve the accuracy of the counts.
Background Radioactivity Measurements. After termite mortality had been recorded, 2 termites were selected at random from each no-choice, control arena. These termites were rinsed, homogenized, and prepared for scintillation counting as previously described. Control termites were counted in the scintillation counter for 10 minutes to record background radioactivity. Background radioactivity was measured for each treatment group (choice and no-choice) at both 2 d and 5 d. Background measurements also accounted for any quenching that occurred due to the termite body fragments occluding light transmission in the scintillation counter. Before the test data was analyzed, background radioactivity counts for a particular sample was subtracted from the sample's spectral peak (Traniello, J. F. A., R. B. Rosengaus and C. K. Levy, 1985, Single and double isotope labeling of social insect colonies, Entomol. Exp. Appl., 38:87-92; Suarez, M. E. and B. L. Thorne, 2000, Effects of food type and foraging distance on trophallaxis in the subterranean termite Reticulitermes virginicus (Isoptera: Rhinotermitidae), Sociobiology, 35: 487-498).
Radiolabel Counting using Dual Label Technique. Specialized procedures were required for analysis of radiolabeled samples containing both ^14C and ^3H. Due to the potential low/high counts and spillover of ^14C and ^3H in the counting window, a series of dilutions was made from extracted diets (with known amounts of activity) to correct for spillover. The range of activity values for ^14C and ^3H and a combination of the two isotopes within the samples was determined. Spillover correction curves were generated for the range of sample data and used to correct those samples where high levels of both ^14C and ^3H occurred and spillover was evident.
Quantification of radioactive isotopes from individual termite cadavers was used to determine how much a single termite consumed of ^14C-hexaflumuron diet in the presence of a competing food source. Mean consumption of ^14C-hexaflumuron diet in the no-choice test was compare with ^14C-hexaflumuron consumption in the choice test using GLM ANOVA with Least Squares adjustment for multiple comparisons of mean values. For all tests data was analyzed separately for 2 d and 5 d.
Finally, mean consumption of the two radioisotopes, ^14C-hexaflumuron and ^3H-inulin, in the choice tests were compared to determine whether termites preferred one diet over another. […]

Reticulitermes spp. [2] = assay: Diet consumption by groups of termites in no-choice and choice bioassay arenas; type: in vivo
Protocol: Subterranean Termite Collection. Five wild populations of Reticulitermes spp. were collected from fallen wood in forested areas of Fairfax County (N38° 43.29′ and W77° 30.93′), Montgomery County (N37° 12.46′ and W80° 24.47′), Rockbridge County (N37° 48.00′ and W 79° 25.00′), and Roanoke County (N37° 19.53′ and W79° 58.53′), Virginia. Termites were harvested by placing the infested wood into large storage bins (70 L; Sterlite®; Sterlite Corporation, Townsend, Mass.) on top of damp, recycled paper towels (Acclaim®; Fort James Corporation, Deerfield, Ill.). As the wood dried out the termites moved into the moist paper towels. The infested paper towels were then transferred to plastic storage containers (11.3 L; Rubbermaid, Wooster, Ohio) containing vermiculite (500 g; moistened 150% by weight (Lenz M., T. L. Amburgey, D. Zi-Rong, H. Kuhne, J. K. Mauldin, A. F. Preston, and M. Westcott, 1987, Interlaboratory studies on termite-wood decay fungi associations: I. Determination of maintenance conditions for several species of termites (Isoptera: Mastotermitidae, Termopsidae, Rhinotermitidae), Sociobiology, 13:1-56; Cherokee Vermiculite Horticultural Fine Cherokee Products, Jefferson City, Tenn.). Subterannean termite containers were stored in complete darkness (˜21° C. and 97% RH) until needed for testing. Subterranean termites were tested within one month after being collected from the field.
Termite Diet Preparation. Recycled brown paper toweling (Acclaim®) was cut into squares (35×35 mm) and used as a diet substrate. The diet substrates were placed into glass Pyrex Petri dishes (100×20 mm; Corning Glass Works, Corning, N.Y.) and dried overnight in a single wall, gravity convection, laboratory oven (60° C.; Blue M SW-17TA; Blue M Electric Company; Blue Island, Ill.). After 24 hours, each diet substrate was taken out of the oven, numbered in the corner with a pencil and weighed on a balance (Mettler AE163; Lab Tech, Inc.) to the nearest 0.1 mg. After weighing, certain diets were treated with radiochemicals. Because hexaflumuron cannot be stored at temperatures greater than 50° C., radioisotopes were only applied after the diets were oven dried. The weight of the isotopes on the diet after air drying was determined to be negligible.
Control Diets. Control diets were treated with the visual marker only. The visual marker was formulated by dissolving Nile Blue-A in acetone and applying a 150 μl aliquot of dye solution to each diet substrate. The final Nile Blue-A concentration on the diet was 0.1%.
^14C-hexaflumuron Diets. A stock solution of technical grade hexaflumuron, ^14C-hexaflumuron (0.5% total hexaflumuron concentration) and 0.1% Nile Blue-A was formulated in acetone. An aliquot (150 μl) of the solution was applied to each diet substrate so that each diet contained 0.27 μCi of the ^14C-hexaflumuron.
^3H-inulin Diets. A stock solution of the ^3H-inulin and 0.1% Nile Blue-A (1.95 mg) was formulated in acetone. An aliquot (150 μl) of the solution was applied to each diet substrate so that each diet contained […] of the ^3H-inulin. ^3H has a lower energy spectrum than ^14C, so ˜8× more ^3H-inulin was added to the diets than ^14C-hexaflumuron to facilitate radioisotope quantification process after termite consumption.
Bioassay Arenas: Consumption bioassays were performed in choice and non-choice bioassay arenas. Arena tests were used to evaluate termite consumption of hexaflumuron treated bait alone and in the presence of a competing food source.
No-Choice Bioassay. No-choice bioassay arenas were assembled by connecting two Petri dishes with Tygon tubing (inner diameter 3.2 mm, outer diameter 6.4 mm). Petri dishes were washed 4 times in tap water to eliminate static electricity. Tygon tubing was soaked in tap water for 3 hours and allowed to air dry prior to use. One Petri dish (95 mm×15 mm; Fisher Scientific) served as a termite housing chamber and was filled with moist sand (˜45 g). […]

Reticulitermes sp. = assay: Inulin treated vs untreated paper towel diets placed on yellow pine termite harborages; type: in vivo; settings: average of 7 d
Protocol: Subterranean termites, Reticulitermes sp. were reared in the laboratory in Nunc dishes containing strips of yellow pine wood as a food resource and termite harborage. Inulin treated and untreated paper towel diets were weighed and then placed side by side on the top of the termite harborages (strips of yellow pine). Termites were allowed to forage for an average of 7 d. After the test period, the diets were removed, weighed and consumption of each towel diet was recorded as a percentage of total consumption of both paper towel diets.

subterranean termites = subterranean termites fed hexaflumuron bait; cited from earlier work
[3] = tested on: eastern subterranean termites; settings: in vivo; cited from earlier work
[4] = choice test 14C-hexaflumuron and 3H-inulin diets, 5 d
[5] = choice test hexaflumuron and inulin diets, 2 d
[6] = choice test hexaflumuron and inulin diets, 5 d
[7] = choice test hexaflumuron and inulin diets, 5 d, listed as inulin

For inulin, the “consumption by an individual termite” value (Reticulitermes spp. [1]; [4]) was 19.4 µg, the “feeding preference of individual termites” value (Reticulitermes spp. [1]; 2 d) was “did not prefer either diet” and the “feeding preference of individual termites” value (Reticulitermes spp. [1]; 5 d, listed as 3H-inulin) was “significant preference”. For the same compound, the “feeding preference of individual termites” value (Reticulitermes spp. [1]; 5 d, listed as inulin) was “significant preference for the inulin treated bait”, the “Consumption (mg) (Mean ± SEM)” value (Reticulitermes spp. [2]; [5]) was 2.0 ± 0.6 mg and the “Consumption (mg) (Mean ± SEM)” value (Reticulitermes spp. [2]; [6]) was 6.0 ± 1.3 mg and 6.0 ± 1.3 b mg. For the same compound, the “Consumption (mg) (Mean ± SEM)” value (Reticulitermes spp. [2]; [7]) was 6.0 mg, the “feeding preference of termite populations (consumption significantly greater than 50% of total)” value (Reticulitermes spp. [2]; [7]) was “preference for the inulin diet was indicated; also recorded: preference for the inulin treated bait” and the “consumption of inulin treated bait relative to Hexaflumuron treated bait” value (Reticulitermes spp. [2]; choice test, 5 d, Table B) was 30 times. For the same compound, the “preferential consumption versus untreated towels and yellow pine wood” value (Reticulitermes sp.) was “preferentially consumed inulin treated paper towels over untreated towels and yellow pine wood” and the “Termite Consumption Mean % ± SEM (percentage of total consumption of both paper towel diets)” value (Reticulitermes sp.; choice, in presence of yellow pine) was 64.7 ± 4.5%.
In the case of O=C(NC(=O)c1c(F)cccc1F)Nc1cc(Cl)c(OC(F)(F)C(F)F)c(Cl)c1 [Hexaflumuron, N-(((3,5-dichloro-4-(1,1,2,2-tetrafluoroethoxy)phenyl)-amino)carbonyl)-2,6-difluorobenzamide], the “consumption by an individual termite” value (Reticulitermes spp. [1]; choice test 14C-hexaflumuron and 3H-inulin diets, 2 d) is reported as 7.3 µg, the “consumption by an individual termite” value (Reticulitermes spp. [1]; [4]) is reported as 2.3 µg and the “feeding preference of individual termites” value (Reticulitermes spp. [1]; 2 d) is reported as “did not prefer either diet”. The “consumption by an individual termite” value (Reticulitermes spp. [1]; choice test competing with control diet, 2 d) was 14.5 µg, the “consumption by an individual termite” value (Reticulitermes spp. [1]; choice test in presence of control diet, 5 d) was 19.3 µg and the “consumption by an individual termite” value (Reticulitermes spp. [1]; no-choice test, 2 d) was 38.9 µg. For the same compound, the “consumption by an individual termite” value (Reticulitermes spp. [1]; no-choice test, 5 d) was 56.9 µg, the “Hexaflumuron Consumption (mg) (Mean ± SEM)” value (Reticulitermes spp. [2]; choice test hexaflumuron and control diet, 2 d) was 1.6 ± 0.9a mg and the “Hexaflumuron Consumption (mg) (Mean ± SEM)” value (Reticulitermes spp. [2]; choice test hexaflumuron and control diet, 2 d, listed as hexaflumuron) was 1.6 mg. For the same compound, the “Hexaflumuron Consumption (mg) (Mean ± SEM)” value (Reticulitermes spp. [2]; choice test hexaflumuron and control diet, 5 d) was 3.2 ± 1.4a mg, the “Hexaflumuron Consumption (mg) (Mean ± SEM)” value (Reticulitermes spp. [2]; choice test hexaflumuron and control diet, 5 d, listed as hexaflumuron) was 3.2 mg and the “Consumption (mg) (Mean ± SEM)” value (Reticulitermes spp. [2]; [5]) was 1.0 ± 0.8a mg. For the same compound, the “Consumption (mg) (Mean ± SEM)” value (Reticulitermes spp. [2]; choice test hexaflumuron and inulin diets, 2 d, listed as hexaflumuron) was 1.0 mg, the “Consumption (mg) (Mean ± SEM)” value (Reticulitermes spp. [2]; [6]) was 0.2 ± 0.1b mg and 0.2 ± 0.1 a mg and the “Consumption (mg) (Mean ± SEM)” value (Reticulitermes spp. [2]; choice test hexaflumuron and inulin diets, 5 d, listed as 14C-hexaflumuron) was 0.2 mg. The “Consumption (mg) (Mean ± SEM)” value (Reticulitermes spp. [2]; choice test hexaflumuron and inulin diets, 5 d, listed as hexaflumuron) was 0.2 mg, the “Hexaflumuron Consumption (mg) (Mean ± SEM)” value (Reticulitermes spp. [2]; no-choice test, 2 d, groups of 100 termite workers, 0.5% hexaflumuron diet) was 3.0 ± 0.7a mg and the “Hexaflumuron Consumption (mg) (Mean ± SEM)” value (Reticulitermes spp. [2]; no-choice test, 2 d, groups of 100 termite workers, 0.5% hexaflumuron diet, listed as 14C-hexaflumuron) was 3 mg. For the same compound, the “Hexaflumuron Consumption (mg) (Mean ± SEM)” value (Reticulitermes spp. [2]; no-choice test, 2 d, groups of 100 termite workers, 0.5% hexaflumuron diet, listed as hexaflumuron) was 3.0 mg, the “Hexaflumuron Consumption (mg) (Mean ± SEM)” value (Reticulitermes spp. [2]; no-choice test, 5 d, groups of 100 termite workers, 0.5% hexaflumuron diet) was 11.4 ± 3.9a mg and the “Hexaflumuron Consumption (mg) (Mean ± SEM)” value (Reticulitermes spp. [2]; no-choice test, 5 d, groups of 100 termite workers, 0.5% hexaflumuron diet, listed as 14C-hexaflumuron) was 11.4 mg. The “Hexaflumuron Consumption (mg) (Mean ± SEM)” value (Reticulitermes spp. [2]; no-choice test, 5 d, groups of 100 termite workers, 0.5% hexaflumuron diet, listed as hexaflumuron) was 11.4 mg, the LT50 (subterranean termites) was about 26.6 days and the onset of toxicity (subterranean termites) was “approximately 15 d”. For the same compound, the “mean half life within the body of a termite” value [3] was about 220 h.
